Test results as given in the METLIN SMRT retention time set (Domingo-Almenara et al. 2019).

Test: gradient 5% acetonitrile 3 min, to 50% in 2 min, to 85% in 15 min, held 3 min, 100 µL/min
Details: column: Zorbax Extend-C18 2.1 x 50 mm; eluents: water / acetonitrile, 0.1% formic acid
Method in brief: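 Standards, all pure, were combined into mixtures of ~100 molecules and run at 100 μL/min on a Zorbax Extend-C18 column (2.1 × 50 mm, 1.8 μm) with water and acetonitrile, each containing 0.1% formic acid. A coupled quadrupole time-of-flight mass spectrometer operated in positive and negative ionization mode. Retention time values come from computationally picked adduct peaks, each inspected manually.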

SMILES	RP-LC retention time [s]
CCN1CCN(CCCNc2nnc(-c3nc(C4CC4)no3)c3ccccc23)CC1	584
Cn1nc(C(=O)N2CCCCC2)c2c1CCN(C(=O)CCC(=O)N1CCC(N3CCCCC3)CC1)C2	586
CCOc1ccc(-c2c(C#N)c(N)nc(SCC(=O)OCc3ccccc3)c2C#N)cc1	997
CN1c2cc(F)ccc2C(=O)NC12CCN(C(=O)c1ccc(F)c(F)c1)CC2	776
Cc1nc(C#Cc2ccnc(Cl)c2)c(C)n1-c1ccc(OC(F)(F)F)cc1	898
COc1ccc(C)cc1NC(=O)CCC1CCN(c2cc(NC3CC3)ncn2)CC1	712
Cc1ccc(NS(=O)(=O)c2ccc(-c3nnc(C4CCC4)o3)o2)cc1	926
Cc1ccc(-n2cc3c(N4CCCC(C(=O)NCc5ccc(Cl)cc5)C4)ncnc3n2)cc1 (stereo unspecified)	750
Cc1ccc2[nH]c(C(N)=O)c(N3CCCC3=O)c2c1	646
COc1ccc2c(c1)C1(CCN(C(=O)Cc3cccc(F)c3)C1)C(=O)N2 (stereo unspecified)	740
COc1ccccc1-c1nc(-c2cccc(-c3ccnn3C)c2)no1	1020
Cc1nn(-c2ccccc2)c(C)c1S(=O)(=O)N1CCC(C(=O)NC2CCCCC2)CC1	912
CC(NC(=O)CC1Sc2ccc(C(F)(F)F)cc2NC1=O)c1ccccc1 (stereo unspecified)	848
O=C(CN1C(=O)CN(C(=O)Nc2ccccc2)c2ccccc21)NCc1ccccn1	587
O=C(c1n[nH]c2ccccc12)N1CCN(c2ccc(C(F)(F)F)cn2)CC1	832
CCOc1ccc(NC(=O)CSc2nccc(N3CCN(c4cccc(OC)c4)CC3)n2)cc1	765
Cc1ccc(CNC(=O)c2ccc3nn(CC(=O)NCCC4=CCCCC4)c(=O)n3c2)cc1	857
Cn1c(=O)n(C)c2cc(S(=O)(=O)c3ccc(F)cc3)c(NC(=O)c3ccccc3)cc21	885
COc1ccc(NC(=O)Cn2c(=O)n(-c3ccc(F)cc3)c3ncccc32)cc1OC	753
CCc1cccc(C)c1NC(=O)Cn1c(=O)n(-c2cccc(C)c2)c(=O)c2c1cc(C)n2C	881
COCCCNC(=O)C1(C)Cn2nc(-c3ccccc3)cc2C(=O)N1Cc1ccc(OC)cc1 (stereo unspecified)	865
CCn1cc(C(=O)NCc2cccc(Br)c2)c2cccnc21	854
CCOC(=O)N1CCC(N2CCCC(COc3ccccc3C(=O)N3CCCC3)C2)CC1 (stereo unspecified)	612
CCOC(=O)c1nc(NCc2ccc(Cl)cc2)c2ccccc2n1	868
CCc1cccc(NC(=O)C2CCN(S(=O)(=O)c3cc(-c4noc(C5CC5)n4)cs3)CC2)c1	1110

SMILES	RP-LC retention time [s]
Cc1cnc(C(=O)N2CC(c3nc(CCOCC4CC4)no3)C2)cn1	706
Cc1sc(-c2nnc(C3CCC3)o2)cc1NC(=O)c1ccc(C#N)cc1	965
O=C(Cn1cnc2nc(N3CCC(C(=O)NC4CC4)CC3)sc2c1=O)NCc1ccccc1	637
C=Cc1ccc(CSc2nnc3c(S(=O)(=O)N4CCCC4)cccn23)cc1	884
CCCN1CCC[C@H](c2cccc(O)c2)C1	588
CCN1C(=O)c2cccnc2Sc2cc(CNC(=O)c3cnccn3)ccc21	683
COc1cccc(-c2c(C(=O)O)nnn2-c2ccc3c(c2)OCCO3)c1	744
O=C(Nc1ccccc1)C1CCCN(S(=O)(=O)Cc2ccccc2)C1 (stereo unspecified)	940
Cc1ccc(-c2csc(NC(=O)COc3ccccc3C(C)(C)C)n2)cc1	1380
Cc1cccc(-n2c(N3CCCC(C(=O)NCc4cccs4)C3)nc3ccsc3c2=O)c1 (stereo unspecified)	876
O=c1cc(Cn2nc3c(-c4nc(-c5ccccc5)no4)cccn3c2=O)nc2ccccn12	740
COc1ccc(CCN2C(=O)C(NC(C)=O)(C(F)(F)F)C3=C2CC(C)(C)CC3=O)cc1OC (stereo unspecified)	760
Cc1ccc(-n2nc3c(=O)n(CCCC(=O)N4CCC(C(N)=O)CC4)nc(C)c3c2C)cc1	648
COc1cccc2cc(C(=O)N3CCN(c4ccccn4)CC3)oc12	576
O=C(c1cc(F)ccc1Cl)N1CCN(c2cc(-c3ccc(F)cc3)[nH]n2)CC1	847
CC(C)C(=O)Nc1nc(-c2ccc3c(c2)NC(=O)C(C)O3)cs1 (stereo unspecified)	787
CC1CCC(NC(=O)C(Cc2c[nH]c3ccccc23)NC(=O)C2CCC(C)CC2)CC1 (stereo unspecified)	1100
Cc1ccc(S(=O)(=O)c2cnc(N3CCC(C(N)=O)(N4CCCCC4)CC3)nc2N)cc1	613
COC(=O)c1cccc(-c2nc(C3CC(=O)N(c4ccc(Cl)cc4)C3)no2)c1 (stereo unspecified)	1030
COCc1nc2cccnc2n1C1CCN(C(=O)Nc2ccc(Br)cc2)CC1	747
O=C(Cn1c(C(F)(F)F)nc2cc3c(cc21)OCCO3)NCc1ccccc1	829
NS(=O)(=O)c1ccc(CCNCc2ccc(-c3cccc(Cl)c3)o2)cc1	675
CCCC(C)NC(=O)c1ccc2c(c1)CCCN2S(C)(=O)=O (stereo unspecified)	827
Cc1ccc(-c2nc(C3CCN(S(=O)(=O)c4ccc(C)c(C)c4)CC3)no2)cc1	1320
COc1ccccc1-c1noc(Cn2c(=O)n(Cc3ccc(F)cc3)c(=O)c3sccc32)n1	1020

The remaining lines, values ahead:

RP-LC retention time [s]	SMILES
866	Cc1nc(-c2noc(-c3ccccc3)n2)cn1CC(=O)NCc1ccc(F)c(Cl)c1
907	CCc1onc(C)c1C1CCCN1C(=O)Nc1ccccc1Cl (stereo unspecified)
761	COc1ccc(NC(=O)NC2CCN(c3ccccc3)C2=O)c(OC)c1 (stereo unspecified)
878	CC(C)NC(=O)c1c2c(cn(-c3ccccc3)c1=O)C(=O)CC(C)(C)C2
1060	COc1ccc(C2CCN(S(=O)(=O)c3cccc(C(F)(F)F)c3)C2)cc1 (stereo unspecified)
667	COc1ccc(Cl)cc1NC(=O)N1CCN(c2ccc3nncn3n2)CC1
655	CCC(=O)Nc1ccc2c(c1)Sc1ncccc1C(=O)N2CC
916	Cc1nc(CSc2nc3cc([N+](=O)[O-])ccc3s2)cs1
726	O=C(NCCc1nc2cccnc2n1Cc1ccccc1)Nc1ccc2c(c1)OCO2
601	OC1(c2ccccn2)CCOC2(CCN(Cc3ccccc3OC(F)(F)F)CC2)C1 (stereo unspecified)
599	Cn1cnc2c(C(=O)N3CCN(c4ccccn4)CC3)nn(-c3ccccc3)c2c1=O
894	CCn1c(=O)c(C)nc2cc(-c3noc(-c4cc(OC)cc(OC)c4)n3)ccc21
862	COc1cc(-c2noc(Cn3nc4ccc(-c5ccccc5)nn4c3=O)n2)cc(OC)c1OC
698	Cc1ccc(-c2nc3cccnc3n2CCCNC(=O)Nc2ccc3c(c2)OCCO3)cc1
722	Cc1csc(-c2cn(CC(=O)Nc3ccc(C)c(C)c3)cn2)n1
817	CCN(C(=O)CN1C(=O)NC(c2ccc(C)cc2)C2=C1COC2=O)c1cccc(C)c1 (stereo unspecified)
1080	CCOc1ccccc1-c1noc(Cn2c(=O)n(Cc3ccc(OC)cc3)c(=O)c3sccc32)n1
822	CC(C)CCNC(=O)C1(C)Cn2nc(C(=O)NCc3ccc(Cl)cc3)cc2C(=O)N1C (stereo unspecified)

RP-LC retention time [s]	SMILES
1260	CCNC(=O)N1CC(n2cc(C(=O)NCCOC)nn2)C1
832	CCOc1ccc(NC(=O)Cn2c(=O)n(-c3ccccc3)c(=O)c3c2cc(C)n3C)cc1
676	Cc1ccc(N2CC(c3nc(-c4ccc5c(c4)ncn5CCC(=O)N4CCCC4)no3)CC2=O)cc1 (stereo unspecified)
1120	CC(C)(C)c1csc(-c2csc(S(=O)(=O)Nc3ccccc3F)c2)n1
689	O=C(Nc1ccccc1F)C1CCN(c2cc(N3CCCCC3)ncn2)CC1
738	CCN1CCCn2cc(S(=O)(=O)Nc3ccc(F)cc3Cl)cc2C1=O
703	CCCNC(=O)C1CCCN(c2nc3ncn(CC(=O)Nc4cc(C)ccc4C)c(=O)c3s2)C1 (stereo unspecified)
657	NS(=O)(=O)c1ccc(NC(=O)NC2CC(=O)N(c3ccc(Cl)cc3)C2)cc1 (stereo unspecified)
927	Cc1noc(-c2cc(=O)n(CC(=O)Nc3cccc(Cl)c3)c3ccccc23)n1
786	CCOc1ccc(CNC(=O)c2c(C)sc3ccn(C)c(=O)c23)cc1
770	COCc1nncn1C1CCN(S(=O)(=O)c2ccc(C)c(Cl)c2)CC1
686	N#Cc1ccc(NS(=O)(=O)c2c[nH]c3ncccc23)cc1
742	CC(C)CNC(=O)CN1CCN(Cc2ccc(F)cc2)C1=O
800	COc1c(C)c2c(c(O)c1C/C=C(\C)CCC(=O)O)C(=O)OC2
1060	O=C1CCCc2nc(N3CCN(c4ccccc4F)CC3)ncc21
1060	Cc1ccc(-c2cnc(N3CCCC(C(=O)NCc4ccc5c(c4)OCO5)C3)nc2)cc1 (stereo unspecified)
579	CC(=O)Nc1ccc2c(c1)nc(CN1CCOCC1)n2C(C)C
733	O=C(Cn1nc(N2CCOCC2)c2ccccc2c1=O)Nc1ccc2c(c1)OCO2
